# Reference: ChEMBL document CHEMBL4811230, “In Planta Discovery and Chemical Synthesis of Bracelet Cystine Knot Peptides from Rinorea bengalensis” (J Nat Prod, 2021)
# Starred links: 1 amine or outer side, 2 acyl side, 3 side chain; linkers in the order of their positions; H or OH if unused. Positions of bridges follow the written chain, without caps; N, C: chain ends. Non-standard residues stand in square brackets, D forms with d. Residues, ends and D or L forms follow the SMILES beside them. X1 = CN[C@@H](C)[C@H](N[*:1])C(=O)[*:2]
# Legend:
# PC-3 = assay: Cytotoxicity against human PC-3 cells assessed as decrease in cell viability measured after 24 hrs by MTT assay; assay type: functional
# MDA-MB-231 = assay: Cytotoxicity against human MDA-MB-231 cells assessed as decrease in cell viability measured after 24 hrs by MTT assay; assay type: functional
# [1] = Cytotoxicity against HUVEC cells assessed as decrease in cell viability measured after 24 hrs by MTT assay; assay type: cell-based; settings: human
# [2] = Hemolytic activity against human RBC incubated for 1 hr; assay type: ADME, cell-based, Erythrocyte; settings: red blood cells (erythrocytes), read-out: CC50
SMILES,CC50 (PC-3) [nM],CC50 (MDA-MB-231) [nM],CC50 at 24 h [1] [nM],HC50 at 1 h [2] [µM]
CC(C)C[C@@H]1NC(=O)CNC(=O)[C@H](CC(N)=O)NC(=O)[C@H](CCCNC(=N)N)NC(=O)[C@H]([C@@H](C)O)NC(=O)[C@@H]2CSSC[C@@H]3NC(=O)[C@H]([C@@H](C)O)NC(=O)CNC(=O)CNC(=O)[C@H](C(C)C)NC(=O)[C@@H]4CSSC[C@H](NC(=O)[C@H]([C@@H](C)O)NC(=O)[C@H](CSSC[C@H](NC(=O)[C@H](C(C)C)NC(=O)[C@@H]5CCCN5C1=O)C(=O)NCC(=O)N[C@@H](CCC(=O)O)C(=O)N[C@@H]([C@@H](C)O)C(=O)N4)NC(=O)CNC(=O)[C@@H]1CCCN1C(=O)[C@H]([C@@H](C)O)NC(=O)[C@H](CC(N)=O)NC3=O)C(=O)N[C@@H](CO)C(=O)N[C@@H](Cc1c[nH]c3ccccc13)C(=O)N1CCC[C@H]1C(=O)N[C@@H](C(C)C)C(=O)N2,3100,5100,–,–
CC[C@H](C)[C@@H]1NC(=O)[C@H](CC(C)C)NC(=O)[C@H](C)NC(=O)[C@H]([C@H](C)O)NC(=O)[C@H](C(C)C)NC(=O)[C@H]([C@H](C)O)NC(=O)[C@H](CS)NC(=O)[C@@H]2CCCN2C1=O,700,1500,900,21.9
CC[C@H](C)[C@@H]1NC(=O)[C@@H]2CSSC[C@@H]3NC(=O)[C@H](C(C)C)NC(=O)[C@H](CCCCN)NC(=O)[C@H](CC(=O)NN)NC(=O)[C@H](CCCCN)NC(=O)[C@@H]4CSSC[C@H](NC(=O)[C@H](CO)NC(=O)[C@H](CCC(=O)O)NC(=O)CNC(=O)[C@H](CSSC[C@H](NC(=O)CNC(=O)[C@H]([C@@H](C)CC)NC(=O)[C@H](C(C)C)NC(=O)[C@H](CCC(N)=O)NC(=O)[C@H](CO)NC1=O)C(=O)N[C@@H](CCCCN)C(=O)N4)NC(=O)[C@@H]1CCCN1C(=O)[C@H]([C@@H](C)CC)NC(=O)[C@H](C)NC(=O)[C@H](CCCNC(=N)N)NC(=O)[C@H](Cc1ccc(O)cc1)NC3=O)C(=O)N[C@@H](C(C)C)C(=O)N[C@@H](Cc1ccc(O)cc1)C(=O)N[C@@H]([C@@H](C)CC)C(=O)N1CCC[C@H]1C(=O)N2,1500,2200,1000,–
CC[C@H](C)[C@@H]1CC(=O)[C@H](C)NC(=O)[C@H](CCCNC(=N)N)NC(=O)[C@H](Cc2ccc(O)cc2)NC(=O)[C@@H]2CSSC[C@@H]3NC(=O)[C@@H]4CCCN4C(=O)[C@H]([C@@H](C)CC)NC(=O)[C@H](Cc4ccc(O)cc4)NC(=O)[C@H](C(C)C)NC(=O)[C@@H]4CSSC[C@H](NC(=O)[C@H](CO)NC(=O)[C@H](CSSC[C@H](NC(=O)[C@@H]5CCCN5C1=O)C(=O)NCC(=O)N[C@@H](CCC(=O)O)C(=O)N[C@@H](CO)C(=O)N4)NC(=O)CNC(=O)[C@H]([C@@H](C)CC)NC(=O)[C@H](C)NC(=O)[C@H](C)NC(=O)[C@H]([C@H](C)O)NC(=O)[C@H](CC(C)C)NC3=O)C(=O)N[C@@H](CCCCN)C(=O)N[C@@H](CC(N)=O)C(=O)N[C@@H](CCCCN)C(=O)N[C@@H](C(C)C)C(=O)N2,300,600,200,–
"CC[C@H](C)[C@@H]1NC(=O)[C@H](C)NC(=O)[C@H](CO)NC(=O)[C@H](CO)NC(=O)[C@H]([C@@H](C)CC)NC(=O)[C@@H]2CSSC[C@@H]3NC(=O)[C@H](C(C)C)NC(=O)[C@H](CCCCN)NC(=O)[C@H](CO)NC(=O)[C@H](CCCCN)NC(=O)[C@@H]4CSSC[C@H](NC(=O)[C@H](CO)NC(=O)[C@H](CCC(=O)O)NC(=O)CNC(=O)[C@H](CSSC[C@H](NC(=O)CNC1=O)C(=O)N[C@@H](CO)C(=O)N4)NC(=O)[C@@H]1CCCN1C(=O)[C@H]([C@@H](C)CC)NC(=O)CNC(=O)[C@H](CC(N)=O)NC(=O)[C@H](CCCNC(=N)N)NC(=O)[C@H](Cc1ccc(O)cc1)NC3=O)C(=O)N[C@@H](C(C)C)C(=O)N[C@@H](Cc1c[nH]c3ccccc13)C(=O)N[C@@H]([C@@H](C)CC)C(=O)N1CCC[C@H]1C(=O)N2 (cyclo(AIGCSCKSKVCYRNGIPCGESCVWIPCISS); disulfide 4-18, 6-22, 11-27)",600,1100,500,18.5
"CC[C@H](C)[C@@H]1NC(=O)[C@@H]2CSSC[C@@H]3NC(=O)[C@H](C(C)C)NC(=O)[C@H](CCCCN)NC(=O)[C@H](CC(N)=O)NC(=O)[C@H](CCC(N)=O)NC(=O)[C@@H]4CSSC[C@H](NC(=O)[C@H](CO)NC(=O)[C@H](CCC(=O)O)NC(=O)CNC(=O)[C@H](CSSC[C@H](NC(=O)CNC(=O)[C@H]([C@H](C)NC)NC(=O)[C@H](C(C)C)NC(=O)[C@H](C)NC(=O)[C@H](CO)NC1=O)C(=O)N[C@@H](CCCCN)C(=O)N4)NC(=O)[C@@H]1CCCN1C(=O)[C@H]([C@@H](C)CC)NC(=O)[C@H](C)NC(=O)[C@H](CCCNC(=N)N)NC(=O)[C@H](Cc1ccc(O)cc1)NC3=O)C(=O)N[C@@H](C(C)C)C(=O)N[C@@H](Cc1ccc(O)cc1)C(=O)N[C@@H]([C@@H](C)CC)C(=O)N1CCC[C@H]1C(=O)N2 (cyclo(AIPCGESCVYIPCISAV[X1]GCKCQNKVCYR); disulfide 4-20, 8-22, 13-27) [listing 1 of 2 here]",–,–,–,20.1
"CC[C@H](C)[C@@H]1NC(=O)[C@@H]2CSSC[C@@H]3NC(=O)[C@H](C(C)C)NC(=O)[C@H](CCCCN)NC(=O)[C@H](CC(N)=O)NC(=O)[C@H](CCC(N)=O)NC(=O)[C@@H]4CSSC[C@H](NC(=O)[C@H](CO)NC(=O)[C@H](CCC(=O)O)NC(=O)CNC(=O)[C@H](CSSC[C@H](NC(=O)CNC(=O)[C@H]([C@H](C)NC)NC(=O)[C@H](C(C)C)NC(=O)[C@H](C)NC(=O)[C@H](CO)NC1=O)C(=O)N[C@@H](CCCCN)C(=O)N4)NC(=O)[C@@H]1CCCN1C(=O)[C@H]([C@@H](C)CC)NC(=O)[C@H](C)NC(=O)[C@H](CCCNC(=N)N)NC(=O)[C@H](Cc1ccc(O)cc1)NC3=O)C(=O)N[C@@H](C(C)C)C(=O)N[C@@H](Cc1ccc(O)cc1)C(=O)N[C@@H]([C@@H](C)CC)C(=O)N1CCC[C@H]1C(=O)N2 (cyclo(AIPCGESCVYIPCISAV[X1]GCKCQNKVCYR); disulfide 4-20, 8-22, 13-27) [listing 2 of 2 here]",1200,2300,–,–
"CC[C@H](C)[C@@H]1NC(=O)[C@@H]2CSSC[C@@H]3NC(=O)[C@H](C(C)C)NC(=O)[C@H](CCCCN)NC(=O)[C@H](CC(N)=O)NC(=O)[C@H](CCCCN)NC(=O)[C@@H]4CSSC[C@H](NC(=O)[C@H](CO)NC(=O)[C@H](CCC(=O)O)NC(=O)CNC(=O)[C@H](CSSC[C@H](NC(=O)CNC(=O)[C@H]([C@@H](C)CC)NC(=O)[C@H](C(C)C)NC(=O)[C@H](CO)NC(=O)[C@H](CO)NC1=O)C(=O)N[C@@H](CO)C(=O)N4)NC(=O)[C@@H]1CCCN1C(=O)[C@H]([C@@H](C)CC)NC(=O)[C@H](C)NC(=O)[C@H](CCCNC(=N)N)NC(=O)[C@H](Cc1ccc(O)cc1)NC3=O)C(=O)N[C@@H](C(C)C)C(=O)N[C@@H](Cc1ccc(O)cc1)C(=O)N[C@@H]([C@@H](C)CC)C(=O)N1CCC[C@H]1C(=O)N2 (cyclo(AIPCGESCVYIPCISSVIGCSCKNKVCYR); disulfide 4-20, 8-22, 13-27)",500,800,–,8.8
"CC[C@H](C)[C@@H]1NC(=O)[C@H](CCCNC(=N)N)NC(=O)CNC(=O)[C@H](CCCCN)NC(=O)[C@@H]2CSSC[C@@H]3NC(=O)[C@H](CO)NC(=O)[C@H](CCC(=O)O)NC(=O)CNC(=O)[C@@H]4CSSC[C@H](NC(=O)CNC(=O)[C@H]([C@@H](C)CC)NC(=O)[C@H](C(C)C)NC(=O)[C@H](CO)NC(=O)[C@H]([C@@H](C)O)NC(=O)[C@H](Cc5ccccc5)NC(=O)[C@H](CSSC[C@H](NC1=O)C(=O)N[C@@H](C(C)C)C(=O)N[C@@H](CCCNC(=N)N)C(=O)N[C@@H](Cc1ccccc1)C(=O)N[C@@H](CCC(N)=O)C(=O)N4)NC(=O)[C@H](Cc1ccc(O)cc1)NC(=O)[C@H]([C@@H](C)O)NC(=O)[C@H]([C@@H](C)O)NC(=O)[C@H]([C@@H](C)CC)NC(=O)[C@H](CCSC)NC(=O)CNC3=O)C(=O)N[C@@H](CO)C(=O)N2 (cyclo(CFTSVIGCSCKGRICVRFQCGESCGMITTY); disulfide 1-15, 8-20, 10-24) [listing 1 of 2 here]",–,–,1200,> 33
"CC[C@H](C)[C@@H]1NC(=O)[C@H](CCCNC(=N)N)NC(=O)CNC(=O)[C@H](CCCCN)NC(=O)[C@@H]2CSSC[C@@H]3NC(=O)[C@H](CO)NC(=O)[C@H](CCC(=O)O)NC(=O)CNC(=O)[C@@H]4CSSC[C@H](NC(=O)CNC(=O)[C@H]([C@@H](C)CC)NC(=O)[C@H](C(C)C)NC(=O)[C@H](CO)NC(=O)[C@H]([C@@H](C)O)NC(=O)[C@H](Cc5ccccc5)NC(=O)[C@H](CSSC[C@H](NC1=O)C(=O)N[C@@H](C(C)C)C(=O)N[C@@H](CCCNC(=N)N)C(=O)N[C@@H](Cc1ccccc1)C(=O)N[C@@H](CCC(N)=O)C(=O)N4)NC(=O)[C@H](Cc1ccc(O)cc1)NC(=O)[C@H]([C@@H](C)O)NC(=O)[C@H]([C@@H](C)O)NC(=O)[C@H]([C@@H](C)CC)NC(=O)[C@H](CCSC)NC(=O)CNC3=O)C(=O)N[C@@H](CO)C(=O)N2 (cyclo(CFTSVIGCSCKGRICVRFQCGESCGMITTY); disulfide 1-15, 8-20, 10-24) [listing 2 of 2 here]",1300,4100,–,–
